The nature of series [1]: Solubility in water, buffer or urine.
A short description of another series: physchem. The conditions noted are these: solid.
The subject of another series is D. pneumoniae. In words: MIC by Tube Dilution Technique in Nutrient Broth (Example 9 table). It counts as cell-based. The settings on record: Streptococcus pneumoniae; Dp-4 D. pneumoniae A9585. From the text:
(§1) MIC (mcg./ml.) by Tube Dilution Technique in Nutrient Broth.

In series [2] the test system is E. coli. Described as above. The format is cell-based. The settings on record: Escherichia coli.
Source text: as §1

For series [3], the system named is K. pneumoniae. The description is as above. It counts as cell-based. The conditions noted are these: Klebsiella pneumoniae.
Source text: as §1

The next series relates to P. morganii. Described as above. It counts as cell-based. The settings on record: Morganella morganii; Pg-8 P. morganii A15153.
Source text: as §1

The test system of a further series is P. mirabilis. Described as above. It counts as cell-based. The conditions noted are these: Proteus mirabilis; Pm-2 P. mirabilis A9900.
Source text: as §1

The next series has as its system S. enteritidis. Described as above. The conditions noted are these: Salmonella enterica; Se-1 S. enteritidis A9531. It counts as cell-based.
Source text: as §1

A further series has as its system S. pyogenes. The description is as above. The format is cell-based. The conditions noted are these: Streptococcus pyogenes; Sp-3 S. pyogenes A9604.
Source text: as §1

The test system of another series is S. marcescens. Described as above. It counts as cell-based. The conditions noted are these: Serratia marcescens; Sm-1 S. marcescens A20019.
Source text: as §1

Another series deals with E. cloacae. The description is as above. It counts as cell-based. The conditions noted are these: Enterobacter cloacae; El-1 E. cloacae A9656.
Source text: as §1

A further series deals with P. aeruginosa. The description is as above. The format is cell-based. The settings on record: Pseudomonas aeruginosa; P. aeruginosa A9843.
Source text: as §1

Series [4] has as its system S. aureus. The series is described as above. The format is cell-based. The conditions noted are these: Staphylococcus aureus.
Source text: as §1

A further series has as its system Str. pneumoniae. In words: M.I.C. by Tube Dilution in Nutrient Broth (Examples 1 and 2). The format is cell-based. The settings on record: Streptococcus pneumoniae; Str. pneumoniae A9585 (10^-3 dilution of overnight broth culture); 45% Antibiotic Assay Broth + 50% Nutrient Broth + 5% serum. From the text: (§2) *45% Antibiotic Assay Broth + 50% Nutrient Broth + 5% serum
(§3) **Dilution of overnight broth culture

A further series relates to Str. pyogenes. The description is as above. The format is cell-based. The conditions noted are these: Streptococcus pyogenes; Str. pyogenes A9604 (10^-3); 45% Antibiotic Assay Broth + 50% Nutrient Broth + 5% serum.
Source text: as §2, §3

The test system of another series is Pr. morganii. The description is as above. The conditions noted are these: Morganella morganii; Pr. morganii A15153 (10^-4). It counts as cell-based. From the text:
(§4) | **Dilution of overnight broth culture

The test system of series [5] is E. coli. Described as above. It counts as cell-based. The settings on record: Escherichia coli.
Source text: as §4

Series [6] relates to K. pneumoniae. The series is described as above. It counts as cell-based. The conditions noted are these: Klebsiella pneumoniae.
Source text: as §4

A further series has as its system Sal. enteritidis. The series is described as above. It counts as cell-based. The settings on record: Salmonella enterica; Sal. enteritidis A9531 (10 ^4).
Source text: as §4

Another series deals with Ser. marcescens. The description is as above. The format is cell-based. The settings on record: Serratia marcescens; Ser. marcescens A20019 (10^-4).
Source text: as §4

Another series has as its system Ps. aeruginosa. The series is described as above. The conditions noted are these: Pseudomonas aeruginosa; read-out: M.I.C. The format is cell-based.
Source text: as §4

For a further series, the system named is Pr. mirabilis. Described as above. The format is cell-based. The conditions noted are these: Proteus mirabilis; Pr. mirabilis A9900 (10^-4).
Source text: as §4

The test system of a further series is Ent. cloacae. The series is described as above. The format is cell-based. The conditions noted are these: Enterobacter cloacae.
Source text: as §4

Series [7] has as its system S. aureus. The description is as above. The format is cell-based. The conditions noted are these: Staphylococcus aureus.
Source text: as §4

The nature of series [8]: Stability of aqueous solutions at room temperature (loss of activity).
Series [9] is described as follows: Solid stability at elevated temperatures.
Series [10] can be described thus: Blood level in mice after intramuscular injection (Example 7). It counts as in vivo. The conditions noted are these: mouse, im, intramuscularly, 10 mg./kg. of body weight, at 15 minutes. The protocol: The IR and NMR were consistent with the title product, but indicated about 20% impurities, primarily starting material. When this compound was administered intramuscularly by injection at a dose of 10 mg./kg. of body weight in mice, a blood level of […]. was obtained at 15 minutes.

Values after ≈ are worked out from the molar mass of the structure shown. Counter-ions that a name gives are not always drawn.

This is an account of results in patent publication US4100346A, “Certain 7(o-amino-methyl- or methylaminomethylphenyl- or cyclohexadienyl- or thienylacetamide)-3[1-carboxymethyl-(or ethyl- or propyl-)-tetrazol-5-ylthiomethyl]-3-cephem-4-carboxylic acids” (Bristol-Myers Company, priority 1976, dated 1978).

By solubility is commonly meant the concentration that dissolves in the medium under given conditions. A high value points to a readily soluble substance. Regarding `Cn1nnnc1SCC1=C(C(=O)O)N2C(=O)[C@@H](NC(=O)Cc3ccccc3CN)[C@H]2SC1` [7-(o-aminomethylphenylacetamido)-3-(1-methyl-1,2,3,4-tetrazol-5-ylthiomethyl)-3-cephem-4-carboxylic acid], the “lowest pH able to dissolve 150 mg./ml.” value in series [1] (room temperature) was found to be 10.3. For the same compound, the solubility in [1] (solubility, in both buffered aqueous media and in dog urine at room temperature) is 1000 to 3000 µg/mL (≈ 2100 to 6310 µM).
In “physchem”, `NCc1ccccc1CC(=O)N[C@@H]1C(=O)N2C(C(=O)O)=C(CSc3nnnn3CC(=O)O)CS[C@H]12` [BL-S786: L-Lysine Salt] yielded a degraded at 730 h of under 10%.
Consider `Cn1nnnc1SCC1=C(C(=O)O)N2C(=O)[C@@H](NC(=O)[C@H](O)c3ccccc3)[C@H]2SC1` [Cefamandole], for which the MIC against D. pneumoniae was found to be 0.08 µg/mL (≈ 0.173 µM); against E. coli [2] (Ec-1 E. coli NIHJ), 1.6 µg/mL (≈ 3.46 µM); with E. coli [2] (Ec-3 E. coli Juhl A15119), 0.8 µg/mL (≈ 1.73 µM); in the series with E. coli [2] (Ec-58 E. coli A9675), 3.1 µg/mL (≈ 6.7 µM); in the series with K. pneumoniae [3] (Kp-3 K. pneumoniae A9977), 0.8 µg/mL (≈ 1.73 µM); in the series on K. pneumoniae [3] (Kp-4 K. pneumoniae A15130), 6.3 µg/mL (≈ 13.6 µM). In addition, the MIC in the series with P. morganii is 3.1 µg/mL (≈ 6.7 µM); against P. mirabilis, 0.8 µg/mL (≈ 1.73 µM); against S. enteritidis it was 0.4 µg/mL (≈ 0.865 µM); in the series with S. pyogenes, 0.08 µg/mL (≈ 0.173 µM); against S. marcescens, over 100 µg/mL; in the series with E. cloacae, 50 µg/mL (≈ 108 µM). Also, the MIC is over 100 µg/mL with P. aeruginosa; 1.6 µg/mL (≈ 3.46 µM) in the series on S. aureus [4] (Sa-2 S. aureus +50% serum); 0.8 µg/mL (≈ 1.73 µM) in the series on S. aureus [4] (Sa-2 S. aureus Smith A9537); 1.6 µg/mL (≈ 3.46 µM) against S. aureus [4] (Sa-11 S. aureus BX-1633 A9606); 3.1 µg/mL (≈ 6.7 µM) against S. aureus [4] (Sa-44 S. aureus A15097).
`NCC1=C(CC(=O)N[C@@H]2C(=O)N3C(C(=O)O)=C(CSc4nnnn4CC(=O)O)CS[C@H]23)CC=CC1` [Example 2, 7-(2-Aminomethyl-1,4-cyclohexadienylacetamido)-3-(1-carboxymethyltetrazol-5-ylthiomethyl)-3-cephem-4-carboxylic acid]: the MIC in the series on Str. pneumoniae stood at 0.06 µg/mL; in the series on Str. pyogenes, 0.13 µg/mL; in the series on Pr. morganii, 8 µg/mL (≈ 15.3 µM); in the series with E. coli [5] (E. coli A9675 (10^-4)) it was 16 µg/mL (≈ 30.7 µM); in the series with E. coli [5] (E. coli Juhl A15119 (10^-4)), 1.3 µg/mL (≈ 2.49 µM); in the series on K. pneumoniae [6] (K. pneumoniae A9977 (10^-4)), 0.3 µg/mL (≈ 0.575 µM). The MIC is 2 µg/mL (≈ 3.83 µM) in the series with K. pneumoniae [6] (K. pneumoniae A15130 (10^-4)); 0.16 µg/mL (≈ 0.307 µM) against Sal. enteritidis; over 125 µg/mL in the series with Ser. marcescens; over 125 µg/mL in the series with Ps. aeruginosa; 0.3 µg/mL (≈ 0.575 µM) in the series with Pr. mirabilis; 0.3 µg/mL (≈ 0.575 µM) with Ent. cloacae (Ent. cloacae A9657 (10^-4)). Also, the MIC was 32 µg/mL (≈ 61.4 µM) against Ent. cloacae (Ent. cloacae A9659 (10^-4)); over 125 µg/mL against Ent. cloacae (Ent. cloacae A9656 (10^-4)); 2.5 µg/mL (≈ 4.79 µM) against S. aureus [7] (S. aureus BX1633 A9606 (10^-2)); 1.3 µg/mL (≈ 2.49 µM) against S. aureus [7] (S. aureus BX1633 A9606 (10^-3)); 4 µg/mL (≈ 7.67 µM) with S. aureus [7] (S. aureus Meth-Res A15097 (10^-3)); 0.5 µg/mL (≈ 0.959 µM) in the series on S. aureus [7] (S. aureus Smith A9537 (10^-4)). In the series on S. aureus [7] (S. aureus-50% serum A9537 (10^-4)), this compound showed an MIC of over 0.5 µg/mL.
For the compound `NCc1ccccc1CC(=O)N[C@@H]1C(=O)N2C(C(=O)O)=C(CSc3nnnn3CC(=O)O)CS[C@H]12` [Example 3], in series [8] (125.0 mg./ml. at pH 7.0, room temperature, at least 24 hours), the “loss of activity in solution” value is on record as “no significant loss”. Besides, the “Stability in water (time stable)” value in series [8] (room temperature at 250 mg./ml.) was “at least 24 hours”. The “relative stability of the solid at elevated temperatures” value in series [9] was “not as stable at elevated temperatures”. This compound also showed a solubility in series [1] (water, Solubility in water) of over 500000 µg/mL.
On to `NCc1ccccc1CC(=O)N[C@@H]1C(=O)N2C(C(=O)O)=C(CSc3nnnn3CCC(=O)O)CS[C@H]12` [Example 7, 7-(2-aminomethylphenylacetamido)-3-(1-carboxyethyltetrazol-5-ylthiomethyl)-3-cephem-4-carboxylic acid], for which, in series [10], the concentration at 0.25 h came to 22300 µg/mL.
With `NCc1ccccc1CC(=O)N[C@@H]1C(=O)N2C(C(=O)O)=C(CSc3nnnn3CC(=O)O)CS[C@H]12` [Example 8, Monosodium BL-S786 Dihydrate], the “Stability of 250,000 unit/ml. solution” value in series [8] (24 hours at room temperature) is on record as “No loss”. Further, the Solubility in water in [1] (water, Dihydrate) is over 400 mg/mL.
As for `CNCc1ccsc1CC(=O)N[C@@H]1C(=O)N2C(C(=O)O)=C(CSc3nnnn3CC(=O)O)CS[C@H]12` [Example 9, 7-(3-N-methylaminomethyl-2-thienylacetamido)-3-(1-carboxymethyltetrazol-5-ylthiomethyl)-3-cephem-4-carboxylic Acid], the MIC against D. pneumoniae amounted to 0.08 µg/mL (≈ 0.148 µM); in the series on E. coli [2] (Ec-1 E. coli NIHJ), 0.8 µg/mL (≈ 1.48 µM); in the series on E. coli [2] (Ec-3 E. coli Juhl A15119), 0.8 µg/mL (≈ 1.48 µM); with E. coli [2] (Ec-58 E. coli A9675) it was 12.5 µg/mL (≈ 23.2 µM); against K. pneumoniae [3] (Kp-3 K. pneumoniae A9977) it was 0.2 µg/mL (≈ 0.371 µM); against K. pneumoniae [3] (Kp-4 K. pneumoniae A15130), 1.6 µg/mL (≈ 2.97 µM). Besides, the MIC is 12.5 µg/mL (≈ 23.2 µM) in the series with P. morganii; 0.4 µg/mL (≈ 0.741 µM) with P. mirabilis; 0.2 µg/mL (≈ 0.371 µM) with S. enteritidis; 0.08 µg/mL (≈ 0.148 µM) in the series with S. pyogenes; over 100 µg/mL in the series with S. marcescens; 50 µg/mL (≈ 92.7 µM) against E. cloacae. Further, the MIC against P. aeruginosa was over 100 µg/mL; against S. aureus [4] (Sa-2 S. aureus +50% serum), 3.1 µg/mL (≈ 5.74 µM); against S. aureus [4] (Sa-2 S. aureus Smith A9537), 3.1 µg/mL (≈ 5.74 µM); against S. aureus [4] (Sa-11 S. aureus BX-1633 A9606) it was 6.3 µg/mL (≈ 11.7 µM); against S. aureus [4] (Sa-44 S. aureus A15097) it was 12.5 µg/mL (≈ 23.2 µM).
